The nature of data set [1]: In vivo pharmacokinetic studies in mice.
Data set [2] in a line: pKa. The format is physicochemical.
Data set [3] has as its system P. berghei strain GFP ANKA. The experiment in a line: In vivo antimalarial activity, P. berghei infected malaria mouse model. The arrangement: species or system Plasmodium berghei (female NMRI mice).

SMILES strings stand for the structures.

In general, half-life refers to the time in which the quantity being followed falls by half. A word on the pKa: it is the pH at which an ionisable group is half protonated. High values mean a group that holds its proton tightly, low ones a group that gives up its proton readily. As for `C[C@H]1Cc2c([nH]c3cc(F)c(F)cc23)[C@@]2(N1)C(=O)Nc1ccc(Cl)cc12` [Compound 20a, (1R,3S)-5′-Chloro-6,7-difluoro-3-methyl-2,3,4,9-tetrahydrospiro[β-carboline-1,3′-indol]-2′(1′H)-one], the “total systemic clearance relative to hepatic blood flow” value in data set [1] (mice, intravenous administration) is reported as around 10 % hepatic blood flow. In data set [1] (mice, oral, 20a vs 9a), the “exposure (AUC∞) greater than 9a” value turned out to be 18 fold. The compound also showed a half-life in data set [1] (mouse, plasma) of 180 min. In data set [2] (pKa1, first pKa), this compound gave a pKa of 4.9. Moreover, in data set [3] (3 × 30 mg/kg oral doses), the “full cure (no parasites at day 30)” value is recorded as “four out of five mice”. For the same compound, in data set [3] (treated mice, any dosing regimen), the “toxicity or behavioral changes after drug administration” value was “neither toxicity nor behavioral changes”.

As for `C[C@H]1Cc2c([nH]c3cc(Cl)ccc23)[C@@]2(N1)C(=O)Nc1ccc(Cl)cc12` [Compound 18a, (1R,3S)-5′,7-Dichloro-3-methyl-2,3,4,9-tetrahydrospiro[β-carboline-1,3′-indol]-2′(1′H)-one], the pKa in data set [2] (pKa1, first pKa) came to 5.2; in data set [2] (pKa2, second pKa), 10.6.

Compound `C[C@H]1Cc2c([nH]c3ccc(F)cc23)[C@@]2(N1)C(=O)Nc1ccc(Cl)cc12` [Compound 17a, (1R,3S)-5′-Chloro-6-fluoro-3-methyl-2,3,4,9-tetrahydrospiro[β-carboline-1,3′-indol]-2′(1′H)-one] yielded a pKa in data set [2] (pKa1, first pKa) of 4.8.

With `C[C@H]1CCc2c([nH]c3ccccc23)[C@@]2(N1)C(=O)Nc1ccc(Br)cc12` [Compound 1a, (1R,3S)-5′-Bromo-3-methyl-3,4,5,10-tetrahydro-2H-spiro[azepino[3,4-b]indole-1,3′-indol]-2′(1′H)-one], the pKa in data set [2] (pKa1, first pKa) is 5.2.

The values are drawn from publication PMC6996867 (Journal of Medicinal Chemistry, 2010).
